Measured values from patent US9346813B2, “Substituted pyrrolo[2,3-d]pyrimindines as CDK9 kinase inhibitors” (AbbVie Inc., priority 2014, dated 2016).

Assays:
CDK9/Cyclin T1 = biological target: T1, CDK9/Cyclin T1 (Homo sapiens, UniProt P50750); assay: CDK9 enzyme protocol (LANCE ULight TR-FRET kinase assay); assay type: biochemical; details: 4 nM CDK9/Cyclin T1, 1000 μM ATP, 100 nM U-light MBP peptide, 30 minutes
T1 construct: purchased Carna Biosciences 04-110
Description: CDK9 enzyme activities were measured using LANCE ULight TR-FRET kinase assay reagents (PerkinElmer, Waltham, Mass.). Compounds were directly added in 100% DMSO to white low volume assay plates (Perkin Elmer Proxiplate 6008289) using a Labcyte Echo acoustic dispenser. Assay reagents in serine/threonine kinase assay buffer containing 20 mM HEPES, 10 mM MgCl2, 100 mM Na3VO4, and 0.0075% Triton X-100. were added for final reaction mixture concentrations of 1000 μM ATP, 100 nM U-light MBP peptide (Perkin Elmer TRF0109M) and reaction initiated with 4 nM CDK9/Cyclin T1 (Carna Biosciences 04-110). The kinase reaction was carried out for 30 minutes before addition of stopping buffer to a final of 20 mM EDTA and 0.5 nM of LANCE Ultra Europium anti-phospho-MBP antibody (PerkinElmer TRF0201M) in LANCE detection buffer (PerkinElmer CR97-100). The reaction was equilibrated for 1 hour and the signal read in the Perkin Elmer Envision in TR-FRET mode (excitation at 320 nm and emission at 615/665 nm).

H929 cells = assay: Cell viability assay in H929 cells (Cell TiterGlo); assay type: cell-based; details: Homo sapiens, NCI-H929, 24 hours at 37° C.
Description: Cell viability assays were performed using A431 or H929 cells. A431 cells were seeded in 96-well plates at 10,000 cells/well, and after overnight incubation, treated with compounds at 2-times the final concentration to result in a dose response of 3-fold dilutions from 10 μM to 0.0005 μM (50 μL/well, 0.1% final DMSO concentration). H929 cells were seeded in 96-well plates at 10,000 cells/well and treated immediately with compounds as described above. After 24 hours at 37° C., cell viability was measured using Cell TiterGlo reagent (Promega) with a luminescence reader. Alternately, cell viability assays were performed in 384-well format. A431 cells were seeded in 384-well plates at 2500 cells/well and, after overnight incubation, treated with compounds in a dose response of 3-fold dilutions from 10 μM to 0.0005 μM (25 nL/well, 0.1% final DMSO concentration). For the H929 viability assay, 25 nL/well of the compounds was dispensed into 384-well plates in a dose response as described above and cells were immediately seeded in 384-well plates at 2500 cells/well. After 24 hours at 37° C., cell viability was measured using Cell TiterGlo reagent (Promega) with a luminescence reader.

T1 sequence (P50750 whole entry): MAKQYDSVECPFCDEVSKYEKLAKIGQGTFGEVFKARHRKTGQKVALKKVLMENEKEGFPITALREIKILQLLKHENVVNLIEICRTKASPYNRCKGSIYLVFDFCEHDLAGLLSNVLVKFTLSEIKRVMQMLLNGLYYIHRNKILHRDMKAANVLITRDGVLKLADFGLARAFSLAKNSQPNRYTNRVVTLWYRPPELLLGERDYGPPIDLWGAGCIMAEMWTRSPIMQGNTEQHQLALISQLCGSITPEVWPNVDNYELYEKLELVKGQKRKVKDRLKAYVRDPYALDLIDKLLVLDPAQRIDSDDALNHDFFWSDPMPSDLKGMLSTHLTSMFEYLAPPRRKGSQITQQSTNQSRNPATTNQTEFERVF
T1 sequence (O60563 whole entry partner): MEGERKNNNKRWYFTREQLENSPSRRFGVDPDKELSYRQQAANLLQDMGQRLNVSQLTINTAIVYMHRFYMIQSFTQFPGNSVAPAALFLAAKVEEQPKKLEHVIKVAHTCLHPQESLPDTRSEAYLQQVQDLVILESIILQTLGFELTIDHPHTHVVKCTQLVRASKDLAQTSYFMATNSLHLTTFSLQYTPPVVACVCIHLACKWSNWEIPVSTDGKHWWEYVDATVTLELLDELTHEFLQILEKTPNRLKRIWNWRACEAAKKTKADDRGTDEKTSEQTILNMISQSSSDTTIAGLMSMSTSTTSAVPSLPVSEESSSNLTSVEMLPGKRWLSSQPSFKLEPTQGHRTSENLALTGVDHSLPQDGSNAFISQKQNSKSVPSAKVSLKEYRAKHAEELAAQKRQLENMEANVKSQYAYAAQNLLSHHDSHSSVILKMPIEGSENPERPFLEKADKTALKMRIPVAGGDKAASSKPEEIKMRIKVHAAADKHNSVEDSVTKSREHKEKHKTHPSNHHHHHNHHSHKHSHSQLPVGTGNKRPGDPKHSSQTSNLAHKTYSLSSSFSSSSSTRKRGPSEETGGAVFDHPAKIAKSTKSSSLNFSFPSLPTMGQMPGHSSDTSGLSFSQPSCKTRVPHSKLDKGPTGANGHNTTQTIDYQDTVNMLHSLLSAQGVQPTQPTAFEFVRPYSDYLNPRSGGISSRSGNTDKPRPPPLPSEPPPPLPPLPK

SMILES	IC50 (CDK9/Cyclin T1)	EC50 (H929 cells)
CS(=O)(=O)N1CC=C(c2cc3c(N4CCCC4)ncnc3[nH]2)CC1 [Example 62, 6-[1-(methylsulfonyl)-1,2,3,6-tetrahydropyridin-4-yl]-4-(pyrrolidin-1-yl)-7H-pyrrolo[2,3-d]pyrimidine]	5000 nM	
COCC(=O)N1CC=C(c2cc3c(-c4cc(F)ccc4OC)ncnc3[nH]2)CC1 [Example 18, 1-{4-[4-(5-fluoro-2-methoxyphenyl)-7H-pyrrolo[2,3-d]pyrimidin-6-yl]-3,6-dihydropyridin-1(2H)-yl}-2-methoxyethanone]	130 nM	400 nM
COc1ccc(F)cc1-c1ncnc2[nH]c(C3CCN(C)CC3)cc12 [Example 2, 4-(5-fluoro-2-methoxyphenyl)-6-(1-methylpiperidin-4-yl)-7H-pyrrolo[2,3-d]pyrimidine]	110 nM	
CCOc1ccc(F)cc1-c1ncnc2[nH]c(C3=CCNCC3)cc12 [Example 67, 4-(2-ethoxy-5-fluorophenyl)-6-(1,2,3,6-tetrahydropyridin-4-yl)-7H-pyrrolo[2,3-d]pyrimidine]	300 nM	
CCCCOc1ccc(F)cc1-c1ncnc2[nH]c(C3=CCN(S(C)(=O)=O)CC3)cc12 [Example 42, 4-(2-butoxy-5-fluorophenyl)-6-[1-(methylsulfonyl)-1,2,3,6-tetrahydropyridin-4-yl]-7H-pyrrolo[2,3-d]pyrimidine]	1200 nM	
CCOc1ccc(F)cc1-c1ncnc2[nH]c(C3=CCN(C(=O)OC(C)(C)C)CC3)cc12 [Example 66, tert-butyl 4-[4-(2-ethoxy-5-fluorophenyl)-7H-pyrrolo[2,3-d]pyrimidin-6-yl]-3,6-dihydropyridine-1(2H)-carboxylate]	1500 nM	
COc1ccc(F)cc1-c1ncnc2[nH]c(C3=CCN(CC(O)CO)CC3)cc12 (centres unmarked) [Example 20, 3-{4-[4-(5-fluoro-2-methoxyphenyl)-7H-pyrrolo[2,3-d]pyrimidin-6-yl]-3,6-dihydropyridin-1(2H)-yl}propane-1,2-diol]		380 nM
CS(=O)(=O)N1CC=C(c2cc3c(N4CCOCC4)ncnc3[nH]2)CC1 [Example 60, 6-[1-(methylsulfonyl)-1,2,3,6-tetrahydropyridin-4-yl]-4-(morpholin-4-yl)-7H-pyrrolo[2,3-d]pyrimidine]	4000 nM	
COc1ccc(F)cc1-c1ncnc2[nH]c(C3=CCN(Cc4ccc(NC(=O)OC(C)(C)C)cc4)CC3)cc12 [Example 69, tert-butyl [4-({4-[4-(5-fluoro-2-methoxyphenyl)-7H-pyrrolo[2,3-d]pyrimidin-6-yl]-3,6-dihydropyridin-1(2H)-yl}methyl)phenyl]carbamate]	450 nM	
CS(=O)(=O)N1CC=C(c2cc3c(N4CCC(F)(F)CC4)ncnc3[nH]2)CC1 [Example 63, 4-(4,4-difluoropiperidin-1-yl)-6-[1-(methylsulfonyl)-1,2,3,6-tetrahydropyridin-4-yl]-7H-pyrrolo[2,3-d]pyrimidine]	1300 nM	
CS(=O)(=O)N1CC=C(c2cc3c(N4CC(F)(F)C4)ncnc3[nH]2)CC1 [Example 64, 4-(3,3-difluoroazetidin-1-yl)-6-[1-(methylsulfonyl)-1,2,3,6-tetrahydropyridin-4-yl]-7H-pyrrolo[2,3-d]pyrimidine]	2000 nM	
CCCCOc1ccc(F)c(-c2ncnc3[nH]c(C4=CCN(S(C)(=O)=O)CC4)cc23)c1 [Example 54, 4-(5-butoxy-2-fluorophenyl)-6-[1-(methylsulfonyl)-1,2,3,6-tetrahydropyridin-4-yl]-7H-pyrrolo[2,3-d]pyrimidine]	4100 nM	

Continued, in another order:

IC50 (CDK9/Cyclin T1)	SMILES	EC50 (H929 cells)
2800 nM	CCCOc1ccc(C)cc1-c1ncnc2[nH]c(C3=CCN(S(C)(=O)=O)CC3)cc12 [Example 53, 4-(5-methyl-2-propoxyphenyl)-6-[1-(methylsulfonyl)-1,2,3,6-tetrahydropyridin-4-yl]-7H-pyrrolo[2,3-d]pyrimidine]	
> 12500 nM	Cc1ccc(OC(C)C)c(-c2ncnc3[nH]c(C4=CCN(S(C)(=O)=O)CC4)cc23)c1 [Example 43, 4-[5-methyl-2-(propan-2-yloxy)phenyl]-6-[1-(methylsulfonyl)-1,2,3,6-tetrahydropyridin-4-yl]-7H-pyrrolo[2,3-d]pyrimidine]	
> 12500 nM	CS(=O)(=O)N1CC=C(c2cc3c(-c4ccccc4OC(F)(F)F)ncnc3[nH]2)CC1 [Example 58, 6-[1-(methylsulfonyl)-1,2,3,6-tetrahydropyridin-4-yl]-4-[2-(trifluoromethoxy)phenyl]-7H-pyrrolo[2,3-d]pyrimidine]	
910 nM	COc1ccncc1-c1ncnc2[nH]c(C3=CCN(S(C)(=O)=O)CC3)cc12 [Example 59, 4-(4-methoxypyridin-3-yl)-6-[1-(methylsulfonyl)-1,2,3,6-tetrahydropyridin-4-yl]-7H-pyrrolo[2,3-d]pyrimidine]	
300 nM	CS(=O)(=O)N1CC=C(c2cc3c(-c4cc(NCc5ccccn5)ccc4F)ncnc3[nH]2)CC1 [Example 33, 4-fluoro-3-{6-[1-(methylsulfonyl)-1,2,3,6-tetrahydropyridin-4-yl]-7H-pyrrolo[2,3-d]pyrimidin-4-yl}-N-(pyridin-2-ylmethyl)aniline]	
290 nM	CS(=O)(=O)Nc1cccc(-c2ncnc3[nH]c(C4=CCN(S(C)(=O)=O)CC4)cc23)c1 [Example 48, N-(3-{6-[1-(methylsulfonyl)-1,2,3,6-tetrahydropyridin-4-yl]-7H-pyrrolo[2,3-d]pyrimidin-4-yl}phenyl)methanesulfonamide]	
> 12500 nM	CS(=O)(=O)N1CC=C(c2cc3c(-c4cc(C(F)(F)F)ccc4F)ncnc3[nH]2)CC1 [Example 51, 4-[2-fluoro-5-(trifluoromethyl)phenyl]-6-[1-(methylsulfonyl)-1,2,3,6-tetrahydropyridin-4-yl]-7H-pyrrolo[2,3-d]pyrimidine]	
1400 nM	CS(=O)(=O)N1CC=C(c2cc3c(-c4ccccc4C(F)(F)F)ncnc3[nH]2)CC1 [Example 47, 6-[1-(methylsulfonyl)-1,2,3,6-tetrahydropyridin-4-yl]-4-[2-(trifluoromethyl)phenyl]-7H-pyrrolo[2,3-d]pyrimidine]	
610 nM	COc1ccc(C)cc1-c1ncnc2[nH]c(C3=CCN(S(C)(=O)=O)CC3)cc12 [Example 44, 4-(2-methoxy-5-methylphenyl)-6-[1-(methylsulfonyl)-1,2,3,6-tetrahydropyridin-4-yl]-7H-pyrrolo[2,3-d]pyrimidine]	
1600 nM	CS(=O)(=O)N1CC=C(c2cc3c(-c4cccc(OC(F)(F)F)c4)ncnc3[nH]2)CC1 [Example 56, 6-[1-(methylsulfonyl)-1,2,3,6-tetrahydropyridin-4-yl]-4-[3-(trifluoromethoxy)phenyl]-7H-pyrrolo[2,3-d]pyrimidine]	
2400 nM	Cn1cc(-c2ncnc3[nH]c(C4=CCN(S(C)(=O)=O)CC4)cc23)cn1 [Example 57, 4-(1-methyl-1H-pyrazol-4-yl)-6-[1-(methylsulfonyl)-1,2,3,6-tetrahydropyridin-4-yl]-7H-pyrrolo[2,3-d]pyrimidine]	
830 nM	CS(=O)(=O)N1CC=C(c2cc3c(-c4ccc(F)cc4F)ncnc3[nH]2)CC1 [Example 46, 4-(2,4-difluorophenyl)-6-[1-(methylsulfonyl)-1,2,3,6-tetrahydropyridin-4-yl]-7H-pyrrolo[2,3-d]pyrimidine]	
11700 nM	Cc1cc(Cl)cc(-c2ncnc3[nH]c(C4=CCN(S(C)(=O)=O)CC4)cc23)c1F [Example 41, 4-(5-chloro-2-fluoro-3-methylphenyl)-6-[1-(methylsulfonyl)-1,2,3,6-tetrahydropyridin-4-yl]-7H-pyrrolo[2,3-d]pyrimidine]	
1000 nM	Cc1ccc(F)c(-c2ncnc3[nH]c(C4=CCN(S(C)(=O)=O)CC4)cc23)c1 [Example 50, 4-(2-fluoro-5-methylphenyl)-6-[1-(methylsulfonyl)-1,2,3,6-tetrahydropyridin-4-yl]-7H-pyrrolo[2,3-d]pyrimidine]	
1300 nM	CCCOc1ccc(F)cc1-c1ncnc2[nH]c(C3=CCN(S(C)(=O)=O)CC3)cc12 [Example 49, 4-(5-fluoro-2-propoxyphenyl)-6-[1-(methylsulfonyl)-1,2,3,6-tetrahydropyridin-4-yl]-7H-pyrrolo[2,3-d]pyrimidine]	
10100 nM	CC(C)Oc1ccc(F)c(-c2ncnc3[nH]c(C4=CCN(S(C)(=O)=O)CC4)cc23)c1 [Example 52, 4-[2-fluoro-5-(propan-2-yloxy)phenyl]-6-[1-(methylsulfonyl)-1,2,3,6-tetrahydropyridin-4-yl]-7H-pyrrolo[2,3-d]pyrimidine]	
